Measured values taken from the supplement of paper PMC10307832.

Columns and labels:
Assay in all cases: relative viability (nuclei count vs DMSO), 5 days (fraction); higher = more cells survive
NCI-H2126 = system: NCI-H2126
Outline: (§1)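 The day after seeding in 1536-well plates, lung cancer cell lines were treated by pin tool with a single drug, or with a fixed anchor-drug dose together with five library-drug doses (not always all listed) in √10 steps. After 5 days, a combined fix-and-stain solution (final 0.05% Triton X-100, 1% formaldehyde, 1 ug/ml Hoechst) was added. Nuclei counted on 4× images gave relative viability as treated counts over vehicle counts, reported as the median of duplicate plates.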

NCI-H1666 = system: NCI-H1666
Outline: as §1

SK-LU-1 = system: SK-LU-1
Outline: as §1

LK-2 = system: LK-2
Outline: as §1

LU99A = system: LU99A
Outline: as §1

LCLC-103H = system: LCLC-103H
Outline: as §1

EKVX = system: EKVX
Outline: as §1

NCI-H1563 = system: NCI-H1563
Outline: as §1

NCI-H23 = system: NCI-H23
Outline: as §1

NCI-H2405 = system: NCI-H2405
Outline: as §1

NCI-H1975 = system: NCI-H1975
Outline: as §1

LXF-289 = system: LXF-289
Outline: as §1

EPLC-272H = system: EPLC-272H
Outline: as §1

HCC-827 = system: HCC-827
Outline: as §1

HCC-78 = system: HCC-78
Outline: as §1

RERF-LC-KJ = system: RERF-LC-KJ
Outline: as §1

SW 1573 = system: SW 1573
Outline: as §1

EMC-BAC-2 = system: EMC-BAC-2
Outline: as §1

NCI-H322M = system: NCI-H322M
Outline: as §1

PC-14 = system: PC-14
Outline: as §1

O=c1cc(N2CCOCC2)oc2c(-c3cccc4c3sc3ccccc34)cccc12 + C[C@]1(O)C[C@@H](c2nc(-c3ccc4ccc(-c5ccccc5)nc4c3)c3c(N)nccn32)C1 [Linsitinib] (partner 1 µM)
relative viability (NCI-H2126; first compound 0.01 µM): 0.698
relative viability (NCI-H2126; first compound 0.03162 µM): 0.664
relative viability (NCI-H2126; first compound 0.1 µM): 0.691
relative viability (NCI-H2126; first compound 0.3162 µM): 0.702
relative viability (NCI-H2126; first compound 1 µM): 0.725
relative viability (NCI-H1666; first compound 0.01 µM): 0.735
relative viability (NCI-H1666; first compound 0.03162 µM): 0.803
relative viability (NCI-H1666; first compound 0.1 µM): 0.972
relative viability (NCI-H1666; first compound 0.3162 µM): 0.776
relative viability (NCI-H1666; first compound 1 µM): 0.636
relative viability (SK-LU-1; first compound 0.03162 µM): 1.25
relative viability (SK-LU-1; first compound 0.1 µM): 1.12
relative viability (SK-LU-1; first compound 0.3162 µM): 1.19
relative viability (SK-LU-1; first compound 1 µM): 0.969
relative viability (LK-2; first compound 0.01 µM): 0.585
relative viability (LK-2; first compound 0.03162 µM): 0.754
relative viability (LK-2; first compound 0.1 µM): 0.83
relative viability (LK-2; first compound 0.3162 µM): 0.554
relative viability (LK-2; first compound 1 µM): 0.69
relative viability (LU99A; first compound 0.01 µM): 0.524
relative viability (LU99A; first compound 0.03162 µM): 0.628
relative viability (LU99A; first compound 0.1 µM): 0.589
relative viability (LU99A; first compound 0.3162 µM): 0.518
relative viability (LU99A; first compound 1 µM): 0.627
relative viability (LCLC-103H; first compound 0.01 µM): 1.09
relative viability (LCLC-103H; first compound 0.03162 µM): 1.04
relative viability (LCLC-103H; first compound 0.1 µM): 1.03
relative viability (LCLC-103H; first compound 0.3162 µM): 1.08
relative viability (LCLC-103H; first compound 1 µM): 0.978
relative viability (EKVX; first compound 0.01 µM): 0.989
relative viability (EKVX; first compound 0.03162 µM): 0.907
relative viability (EKVX; first compound 0.1 µM): 1.19
relative viability (EKVX; first compound 0.3162 µM): 0.956
relative viability (EKVX; first compound 1 µM): 1.01
relative viability (NCI-H1563; first compound 0.01 µM): 1.18
relative viability (NCI-H1563; first compound 0.03162 µM): 1.21
relative viability (NCI-H1563; first compound 0.1 µM): 1.19
relative viability (NCI-H1563; first compound 0.3162 µM): 1.14
relative viability (NCI-H1563; first compound 1 µM): 1
relative viability (NCI-H23; first compound 0.01 µM): 0.623
relative viability (NCI-H23; first compound 0.03162 µM): 0.641
relative viability (NCI-H23; first compound 0.3162 µM): 0.663
relative viability (NCI-H23; first compound 1 µM): 0.476
relative viability (NCI-H2405; first compound 0.01 µM): 0.972
relative viability (NCI-H2405; first compound 0.03162 µM): 1.01
relative viability (NCI-H2405; first compound 0.1 µM): 1.01
relative viability (NCI-H2405; first compound 0.3162 µM): 0.924
relative viability (NCI-H2405; first compound 1 µM): 0.955
relative viability (NCI-H1975; first compound 0.01 µM): 0.833
relative viability (NCI-H1975; first compound 0.03162 µM): 0.922
relative viability (NCI-H1975; first compound 0.1 µM): 0.94
relative viability (NCI-H1975; first compound 0.3162 µM): 0.929
relative viability (NCI-H1975; first compound 1 µM): 1
relative viability (LXF-289; first compound 0.01 µM): 0.983
relative viability (LXF-289; first compound 0.03162 µM): 0.927
relative viability (LXF-289; first compound 0.1 µM): 0.978
relative viability (LXF-289; first compound 0.3162 µM): 0.978
relative viability (LXF-289; first compound 1 µM): 0.897
relative viability (EPLC-272H; first compound 0.01 µM): 0.987
relative viability (EPLC-272H; first compound 0.03162 µM): 1.17
relative viability (EPLC-272H; first compound 0.3162 µM): 1.31
relative viability (EPLC-272H; first compound 1 µM): 1.1
relative viability (HCC-827; first compound 0.01 µM): 0.906
relative viability (HCC-827; first compound 0.03162 µM): 0.977
relative viability (HCC-827; first compound 0.1 µM): 0.941
relative viability (HCC-827; first compound 0.3162 µM): 0.941
relative viability (HCC-827; first compound 1 µM): 0.891
relative viability (HCC-78; first compound 0.01 µM): 0.542
relative viability (HCC-78; first compound 0.03162 µM): 0.525
relative viability (HCC-78; first compound 0.1 µM): 0.559
relative viability (HCC-78; first compound 0.3162 µM): 0.51
relative viability (HCC-78; first compound 1 µM): 0.53
relative viability (RERF-LC-KJ; first compound 0.01 µM): 0.908
relative viability (RERF-LC-KJ; first compound 0.03162 µM): 0.937
relative viability (RERF-LC-KJ; first compound 0.1 µM): 0.914
relative viability (RERF-LC-KJ; first compound 0.3162 µM): 0.869
relative viability (RERF-LC-KJ; first compound 1 µM): 0.874
relative viability (SW 1573; first compound 0.01 µM): 0.955
relative viability (SW 1573; first compound 0.03162 µM): 0.832
relative viability (SW 1573; first compound 0.1 µM): 0.746
relative viability (SW 1573; first compound 0.3162 µM): 0.813
relative viability (SW 1573; first compound 1 µM): 0.653
relative viability (EMC-BAC-2; first compound 0.01 µM): 0.822
relative viability (EMC-BAC-2; first compound 0.03162 µM): 0.867
relative viability (EMC-BAC-2; first compound 0.1 µM): 0.813
relative viability (EMC-BAC-2; first compound 0.3162 µM): 0.773
relative viability (EMC-BAC-2; first compound 1 µM): 0.806
relative viability (NCI-H322M; first compound 0.01 µM): 0.913
relative viability (NCI-H322M; first compound 0.03162 µM): 0.915
relative viability (NCI-H322M; first compound 0.3162 µM): 0.993
relative viability (NCI-H322M; first compound 1 µM): 0.83
relative viability (PC-14; first compound 0.01 µM): 0.998
relative viability (PC-14; first compound 0.03162 µM): 0.934
relative viability (PC-14; first compound 0.1 µM): 0.952
relative viability (PC-14; first compound 0.3162 µM): 0.952
relative viability (PC-14; first compound 1 µM): 0.848
